Laboratory results: patent US20130123481A1, “MODIFIED NUCLEOSIDES, NUCLEOTIDES, AND NUCLEIC ACIDS, AND USES THEREOF” (MODERNA THERAPEUTICS, priority 2011, published 2013)

tested on: peripheral blood mononuclear cells (PBMC); experiment: In Vitro Screening in PBMC - G-CSF protein expression; assay type: cell-based, human; settings: Table 47 naturally occurring; background about 110 pg/ml
Excerpt: (§1) The supernatant was harvested and stored frozen until analyzed by ELISA to determine the G-CSF protein expression, and the induction of the cytokines interferon-alpha (IFN-α) and tumor necrosis factor alpha (TNF-α).

Compound	Protein (G-CSF; PBMC)
N^6-methyladenosine (m^6A)	+/− (“+/−” means 150-300 pg/ml G-CSF)
O=c1[nH]cc([C@@H]2O[C@H](CO)[C@@H](O)[C@H]2O)c(=O)[nH]1 [pseudouridine (Y)]	++ (“++” means greater than 1,500 pg/ml G-CSF)
Cn1cc([C@@H]2O[C@H](CO)[C@@H](O)[C@H]2O)c(=O)[nH]c1=O [1-methylpseudouridine (m^1Y)]	++++ (“++++” means greater than 6,000 pg/ml G-CSF)

same assay, conditions: Table 48 non-naturally occurring; background about 110 pg/ml

Compound	Protein (G-CSF; PBMC)
COC(=O)C=Cc1cn([C@@H]2O[C@H](CO)[C@@H](O)[C@H]2O)c(=O)[nH]c1=O [5-(2-carbomethoxyvinyl) Uridine]	+/− (“+/−” means 150-300 pg/ml G-CSF)
5-Br-Uridine [Compound 5-Br-Uridine]	+ (“+” means greater than 300 pg/ml G-CSF)

tested on: peripheral blood mononuclear cells (PBMC), interferon-alpha (IFN-α); experiment: not given; assay type: cell-based, human; settings: Table 47 naturally occurring; IFN-alpha, background about 70 pg/ml
Excerpt: as §1

Compound	Cytokines (G-CSF; PBMC)
N^6-methyladenosine (m^6A)	++++ (“++++” means greater than 1,000 pg/ml interferon-alpha (IFN-alpha))
O=c1[nH]cc([C@@H]2O[C@H](CO)[C@@H](O)[C@H]2O)c(=O)[nH]1 [pseudouridine (Y)]	+ (“+” means greater than 100 pg/ml IFN-alpha)
Cn1cc([C@@H]2O[C@H](CO)[C@@H](O)[C@H]2O)c(=O)[nH]c1=O [1-methylpseudouridine (m^1Y)]	− (“−” means less than 100 pg/ml)

same assay, conditions: Table 48 non-naturally occurring; IFN-alpha, background about 70 pg/ml

Compound	Cytokines (G-CSF; PBMC)
COC(=O)C=Cc1cn([C@@H]2O[C@H](CO)[C@@H](O)[C@H]2O)c(=O)[nH]c1=O [5-(2-carbomethoxyvinyl) Uridine]	− (“−” means less than 100 pg/ml)
5-Br-Uridine [Compound 5-Br-Uridine]	+ (“+” means greater than 100 pg/ml IFN-alpha)

tested on: HeLa cells; experiment: In vitro Screening in HeLa Cells - luciferase (RLU); assay type: cell-based, human; set-up: key to Protein (Luc; HeLa): the protein production of HeLa is judged by “+,” “+/−” and “−”; the protein production of HeLa is judged by “+,” “+/−” and “−”; the protein production of HeLa is judged by “+,” “+/−” and “−”; settings: Table 47 naturally occurring; *** = production seen in cell free translations
Method: The 2′Fluoro-modified mRNA were then transfected into HeLa cells to assess protein production in a cell context and the same mRNA were also assessed in a cell-free rabbit reticulocyte system. A control of unmodified luciferase (natural luciferase) was used for both transcription experiments, a control of untreated and mock transfected (Lipofectamine 2000 alone) were also analyzed for the HeLa transfection and a control of no RNA was analyzed for the rabbit reticulysates.
For the HeLa transfection experiments, the day before transfection, 20,000 HeLa cells (ATCC no. CCL-2; Manassas, Va.) were harvested by treatment with Trypsin-EDTA solution (LifeTechnologies, Grand Island, N.Y.) and seeded in a total volume of 100 ul EMEM medium (supplemented with 10% FCS and 1× Glutamax) per well in a 96-well cell culture plate (Corning, Manassas, Va.). The cells were grown at […] in 5% CO2 atmosphere overnight. […] Lipofectamine 2000 (LifeTechnologies, Grand Island, N.Y.) was used as transfection reagent and 0.2 ul were diluted in 10 ul final volume of OPTI-MEM. After […] of incubation at room temperature, both solutions were combined and incubated an additional 15 minute at room temperature. Then the 20 ul combined solution was added to the 100 ul cell culture medium containing the HeLa cells and incubated at room temperature. After 18 to 22 hours of incubation cells expressing luciferase were lysed with 100 ul of Passive Lysis Buffer (Promega, Madison, Wis.) according to manufacturer instructions. Aliquots of the lysates were transferred to white opaque polystyrene 96-well plates (Corning, Manassas, Va.) and combined with 100 ul complete luciferase assay solution (Promega, Madison, Wis.). The lysate volumes were adjusted or diluted until no more than 2 mio relative light units (RLU) per well were detected for the strongest signal producing samples and the RLUs for each chemistry tested are shown in Table 42. The plate reader was a BioTek Synergy H1 (BioTek, Winooski, Vt.). The background signal of the plates without reagent was about 200 relative light units per well.
To evaluate using of 2′fluoro-modified mRNA in combination with other modification a series of mRNA were transcribed using either wild-type T7 polymerase (non-fluoro-containing compounds) or using mutant T7 polymerases (fluyoro-containing compounds) as described in Example 86. All modified mRNA were tested by in vitro transfection in HeLa cells.
After 18 to 22 hours of incubation cells expressing luciferase were lysed with 100 ul of Passive Lysis Buffer (Promega, Madison, Wis.) according to manufacturer instructions. Aliquots of the lysates were transferred to white opaque polystyrene 96-well plates (Corning, Manassas, Va.) and combined with 100 ul complete luciferase assay solution (Promega, Madison, Wis.). The lysate volumes were adjusted or diluted until no more than 2 mio relative light units (RLU) per well were detected for the strongest signal producing samples and the RLUs for each chemistry tested are shown in Table 44. The plate reader was a BioTek Synergy H1 (BioTek, Winooski, Vt.). The background signal of the plates without reagent was about 200 relative light units per well.

Compound	Protein (Luc; HeLa)
N^6-methyladenosine (m^6A)	−
O=c1[nH]cc([C@@H]2O[C@H](CO)[C@@H](O)[C@H]2O)c(=O)[nH]1 [pseudouridine (Y)]	+
Cn1cc([C@@H]2O[C@H](CO)[C@@H](O)[C@H]2O)c(=O)[nH]c1=O [1-methylpseudouridine (m^1Y)]	+

same assay, conditions: Table 48 non-naturally occurring; ** mutant T7 polymerase

Compound	Protein (Luc; HeLa)
COC(=O)C=Cc1cn([C@@H]2O[C@H](CO)[C@@H](O)[C@H]2O)c(=O)[nH]c1=O [5-(2-carbomethoxyvinyl) Uridine]	−
5-Br-Uridine [Compound 5-Br-Uridine]	+

molecular target: wild-type T7 polymerase (Escherichia phage T7, UniProt P00573); experiment: In Vitro Transcription with Wild-Type T7 Polymerase (transcription and capping yield); settings: Table 47 naturally occurring; G-CSF mRNA in vitro transcription, Pass/Fail
Method: The luciferase and G-CSF modified mRNA were also subjected to an enzymatic capping reaction and each modified mRNA capping reaction was evaluated for yield by spectrophometic measurement (OD260) and correct size assessed using bioanalyzer.

Sequence of wild-type T7 polymerase (P00573 whole entry): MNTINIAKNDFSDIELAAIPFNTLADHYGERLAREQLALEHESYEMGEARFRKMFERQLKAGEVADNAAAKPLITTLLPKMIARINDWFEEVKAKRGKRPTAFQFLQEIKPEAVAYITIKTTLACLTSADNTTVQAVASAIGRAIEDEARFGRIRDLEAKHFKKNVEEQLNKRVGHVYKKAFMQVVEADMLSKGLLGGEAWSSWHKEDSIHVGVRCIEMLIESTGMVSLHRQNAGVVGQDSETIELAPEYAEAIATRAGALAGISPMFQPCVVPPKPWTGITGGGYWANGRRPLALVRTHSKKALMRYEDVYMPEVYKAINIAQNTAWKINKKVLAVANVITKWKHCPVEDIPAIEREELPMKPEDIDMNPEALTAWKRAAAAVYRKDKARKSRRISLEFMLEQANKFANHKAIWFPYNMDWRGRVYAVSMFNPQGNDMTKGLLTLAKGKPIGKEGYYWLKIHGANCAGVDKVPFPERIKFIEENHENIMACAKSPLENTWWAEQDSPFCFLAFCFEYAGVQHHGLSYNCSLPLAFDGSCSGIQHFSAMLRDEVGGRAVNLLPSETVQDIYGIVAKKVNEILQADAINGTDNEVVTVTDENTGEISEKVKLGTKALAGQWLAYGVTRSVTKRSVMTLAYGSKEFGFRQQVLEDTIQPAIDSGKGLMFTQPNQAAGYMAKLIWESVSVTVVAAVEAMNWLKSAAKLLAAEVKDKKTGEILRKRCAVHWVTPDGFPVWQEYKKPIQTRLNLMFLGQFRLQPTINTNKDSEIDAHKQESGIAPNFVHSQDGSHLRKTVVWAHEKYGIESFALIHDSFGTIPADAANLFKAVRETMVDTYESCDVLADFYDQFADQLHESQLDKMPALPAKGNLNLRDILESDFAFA

Compound	IVT (G-CSF)
N^6-methyladenosine (m^6A)	Pass
O=c1[nH]cc([C@@H]2O[C@H](CO)[C@@H](O)[C@H]2O)c(=O)[nH]1 [pseudouridine (Y)]	Pass
Cn1cc([C@@H]2O[C@H](CO)[C@@H](O)[C@H]2O)c(=O)[nH]c1=O [1-methylpseudouridine (m^1Y)]	Pass

same assay, conditions: Table 47 naturally occurring; luciferase mRNA in vitro transcription, Pass/Fail

Compound	IVT (Luc)
N^6-methyladenosine (m^6A)	Pass
O=c1[nH]cc([C@@H]2O[C@H](CO)[C@@H](O)[C@H]2O)c(=O)[nH]1 [pseudouridine (Y)]	Pass
Cn1cc([C@@H]2O[C@H](CO)[C@@H](O)[C@H]2O)c(=O)[nH]c1=O [1-methylpseudouridine (m^1Y)]	Pass

same assay, conditions: Table 48 non-naturally occurring; G-CSF mRNA in vitro transcription, Pass/Fail

Compound	IVT (G-CSF), first result
COC(=O)C=Cc1cn([C@@H]2O[C@H](CO)[C@@H](O)[C@H]2O)c(=O)[nH]c1=O [5-(2-carbomethoxyvinyl) Uridine]	Pass
5-Br-Uridine [Compound 5-Br-Uridine]	Pass

same assay, conditions: Table 48 non-naturally occurring; luciferase mRNA in vitro transcription, Pass/Fail

Compound	IVT (Luc), first result
COC(=O)C=Cc1cn([C@@H]2O[C@H](CO)[C@@H](O)[C@H]2O)c(=O)[nH]c1=O [5-(2-carbomethoxyvinyl) Uridine]	Pass
5-Br-Uridine [Compound 5-Br-Uridine]	Pass

tested on: HeLa cells; experiment: G-CSF expression in HeLa cells (ELISA); assay type: cell-based, human; set-up: key to Protein (G-CSF; HeLa): the protein production of HeLa is judged by “+,” “+/−” and “−”; the protein production of HeLa is judged by “+,” “+/−” and “−”; the protein production of HeLa is judged by “+,” “+/−” and “−”; settings: Table 47 naturally occurring; *** = production seen in cell free translations
Method: To assess the activity of all our different chemical modifications in the context of a second open reading frame, we replicated experiments previously conducted using luciferase mRNA, with human G-CSF mRNA. […] The mutant T7 polymerase was obtained commercially (Durascribe® T7 Transcription kit (Cat. No. DS010925) (Epicentre®, Madison, Wis.).
The modified RNA in Tables 45 and 46 were transfected in vitro in HeLa cells or added to rabbit reticulysates (250 ng of modified mRNA) as indicated. […] In Table 45, “NT” means not tested.

Compound	Protein (G-CSF; HeLa)
N^6-methyladenosine (m^6A)	−
O=c1[nH]cc([C@@H]2O[C@H](CO)[C@@H](O)[C@H]2O)c(=O)[nH]1 [pseudouridine (Y)]	+

same assay, conditions: Table 48 non-naturally occurring

Compound	Protein (G-CSF; HeLa)
COC(=O)C=Cc1cn([C@@H]2O[C@H](CO)[C@@H](O)[C@H]2O)c(=O)[nH]c1=O [5-(2-carbomethoxyvinyl) Uridine]	−
5-Br-Uridine [Compound 5-Br-Uridine]	+
